The results in this text go back to PubChem BioAssay AID1259407 (Chemical Carcinogenesis Research Information System (CCRIS), 2018).

For this data set, the system named is CCRIS mutagenicity, Ames/micronucleus/aberration tests. The data set is described as follows: CCRIS mutagenicity studies.
The mark [1] stands for this setting: Test System: AMES SALMONELLA TYPHIMURIUM, Strain/Indicator: TA100, Metabolic Activation: NONE, Method: STANDARD PLATE.

The source made the active and inactive calls. The rule behind the calls is not given here.

Regarding `CC1=CC(=O)c2ccccc2C1=O`, the mutagenic call is “active; positive” (Test System: AMES SALMONELLA TYPHIMURIUM, Strain/Indicator: TA97, Metabolic Activation: NONE, Method: PREINCUBATION); “inactive; negative” (Test System: AMES SALMONELLA TYPHIMURIUM, Strain/Indicator: TA97, Metabolic Activation: RAT, LIVER, S-9, PHENOBARBITAL AND 5,6-BENZOFLAVONE, Method: PREINCUBATION); “inactive; negative” (Test System: AMES SALMONELLA TYPHIMURIUM, Strain/Indicator: TA97A, Metabolic Activation: NONE, Method: PREINCUBATION); “inactive; negative” (Test System: AMES SALMONELLA TYPHIMURIUM, Strain/Indicator: TA98, Metabolic Activation: NONE, Method: PREINCUBATION); “inactive; negative” (Test System: AMES SALMONELLA TYPHIMURIUM, Strain/Indicator: TA98, Metabolic Activation: NONE, Method: SPIRAL ASSAY); “inactive; negative” (Test System: AMES SALMONELLA TYPHIMURIUM, Strain/Indicator: TA98, Metabolic Activation: NONE, Method: STANDARD PLATE). The mutagenic call (Test System: AMES SALMONELLA TYPHIMURIUM, Strain/Indicator: TA98, Metabolic Activation: RAT, LIVER, S-9, AROCLOR 1254, Method: SPIRAL ASSAY) is “inactive; negative”; the mutagenic call (Test System: AMES SALMONELLA TYPHIMURIUM, Strain/Indicator: TA98, Metabolic Activation: RAT, LIVER, S-9, AROCLOR 1254, Method: STANDARD PLATE) is “inactive; negative”; the mutagenic call (Test System: AMES SALMONELLA TYPHIMURIUM, Strain/Indicator: TA98, Metabolic Activation: RAT, LIVER, S-9, PHENOBARBITAL AND 5,6-BENZOFLAVONE, Method: PREINCUBATION) was “active; positive”; the mutagenic call (Test System: AMES SALMONELLA TYPHIMURIUM, Strain/Indicator: TA100, Metabolic Activation: NONE, Method: SPIRAL ASSAY) is “inactive; negative”; the mutagenic call under setting [1] is “inactive; negative”; the mutagenic call (Test System: AMES SALMONELLA TYPHIMURIUM, Strain/Indicator: TA100, Metabolic Activation: RAT, LIVER, S-9, AROCLOR 1254, Method: SPIRAL ASSAY) was “inactive; negative”. Besides, the mutagenic call (Test System: AMES SALMONELLA TYPHIMURIUM, Strain/Indicator: TA100, Metabolic Activation: RAT, LIVER, S-9, AROCLOR 1254, Method: STANDARD PLATE) was “inactive; negative”; the mutagenic call (Test System: AMES SALMONELLA TYPHIMURIUM, Strain/Indicator: TA100, Metabolic Activation: RAT, LIVER, S-9, PHENOBARBITAL AND 5,6-BENZOFLAVONE, Method: PREINCUBATION) was “inactive; negative”; the mutagenic call (Test System: AMES SALMONELLA TYPHIMURIUM, Strain/Indicator: TA102, Metabolic Activation: NONE, Method: PREINCUBATION) was “inactive; negative”; the mutagenic call (Test System: AMES SALMONELLA TYPHIMURIUM, Strain/Indicator: TA102, Metabolic Activation: NONE, Method: STANDARD PLATE) is “inactive; negative”; the mutagenic call (Test System: AMES SALMONELLA TYPHIMURIUM, Strain/Indicator: TA102, Metabolic Activation: RAT, LIVER, S-9, PHENOBARBITAL AND 5,6-BENZOFLAVONE, Method: PREINCUBATION) was “inactive; negative”; the mutagenic call (Test System: AMES SALMONELLA TYPHIMURIUM, Strain/Indicator: TA104, Metabolic Activation: RAT, LIVER, S-9, PHENOBARBITAL AND 5,6-BENZOFLAVONE, Method: PREINCUBATION) was “inactive; negative”. Also, the mutagenic call by setting is: (Test System: AMES SALMONELLA TYPHIMURIUM, Strain/Indicator: TA1535, Metabolic Activation: NONE, Method: PREINCUBATION) “inactive; negative”; (Test System: AMES SALMONELLA TYPHIMURIUM, Strain/Indicator: TA1535, Metabolic Activation: NONE, Method: SPIRAL ASSAY) “inactive; negative”; (Test System: AMES SALMONELLA TYPHIMURIUM, Strain/Indicator: TA1535, Metabolic Activation: NONE, Method: STANDARD PLATE) “inactive; negative”; (Test System: AMES SALMONELLA TYPHIMURIUM, Strain/Indicator: TA1535, Metabolic Activation: RAT, LIVER, S-9, AROCLOR 1254, Method: SPIRAL ASSAY) “inactive; negative”; (Test System: AMES SALMONELLA TYPHIMURIUM, Strain/Indicator: TA1535, Metabolic Activation: RAT, LIVER, S-9, AROCLOR 1254, Method: STANDARD PLATE) “inactive; negative”; (Test System: AMES SALMONELLA TYPHIMURIUM, Strain/Indicator: TA1535, Metabolic Activation: RAT, LIVER, S-9, PHENOBARBITAL AND 5,6-BENZOFLAVONE, Method: PREINCUBATION) “inactive; negative”. For the same compound, the mutagenic call is, setting by setting: (Test System: AMES SALMONELLA TYPHIMURIUM, Strain/Indicator: TA1537, Metabolic Activation: NONE, Method: PREINCUBATION) “inactive; negative”; (Test System: AMES SALMONELLA TYPHIMURIUM, Strain/Indicator: TA1537, Metabolic Activation: NONE, Method: SPIRAL ASSAY) “inactive; negative”; (Test System: AMES SALMONELLA TYPHIMURIUM, Strain/Indicator: TA1537, Metabolic Activation: NONE, Method: STANDARD PLATE) “inactive; negative”; (Test System: AMES SALMONELLA TYPHIMURIUM, Strain/Indicator: TA1537, Metabolic Activation: RAT, LIVER, S-9, AROCLOR 1254, Method: SPIRAL ASSAY) “inactive; negative”; (Test System: AMES SALMONELLA TYPHIMURIUM, Strain/Indicator: TA1537, Metabolic Activation: RAT, LIVER, S-9, AROCLOR 1254, Method: STANDARD PLATE) “inactive; negative”; (Test System: AMES SALMONELLA TYPHIMURIUM, Strain/Indicator: TA1537, Metabolic Activation: RAT, LIVER, S-9, PHENOBARBITAL AND 5,6-BENZOFLAVONE, Method: PREINCUBATION) “inactive; negative”. For the same compound, the mutagenic call was “inactive; negative” (Test System: AMES SALMONELLA TYPHIMURIUM, Strain/Indicator: TA1538, Metabolic Activation: NONE, Method: PREINCUBATION); “inactive; negative” (Test System: AMES SALMONELLA TYPHIMURIUM, Strain/Indicator: TA1538, Metabolic Activation: RAT, LIVER, S-9, PHENOBARBITAL AND 5,6-BENZOFLAVONE, Method: PREINCUBATION); “active; positive” (Test System: AMES SALMONELLA TYPHIMURIUM, Strain/Indicator: TA2637, Metabolic Activation: NONE, Method: PREINCUBATION); “active; positive” (Test System: AMES SALMONELLA TYPHIMURIUM, Strain/Indicator: TA2637, Metabolic Activation: RAT, LIVER, S-9, PHENOBARBITAL AND 5,6-BENZOFLAVONE, Method: PREINCUBATION); “inactive; negative” (Test System: AMES SALMONELLA TYPHIMURIUM, Strain/Indicator: TA2638, Metabolic Activation: NONE, Method: STANDARD PLATE); “active; positive” (Test System: E. COLI, Strain/Indicator: IC202, Metabolic Activation: NONE, Method: STANDARD PLATE). In addition, the mutagenic call is “active; positive” (Test System: E. COLI, Strain/Indicator: IC203, Metabolic Activation: NONE, Method: STANDARD PLATE); “inactive; negative” (Test System: E. COLI, Strain/Indicator: IC5059, Metabolic Activation: NONE, Method: STANDARD PLATE); “inactive; negative” (Test System: E. COLI, Strain/Indicator: IC5064, Metabolic Activation: NONE, Method: STANDARD PLATE); “inactive; negative” (Test System: E. COLI, Strain/Indicator: IC5184, Metabolic Activation: NONE, Method: STANDARD PLATE); “inactive; negative” (Test System: E. COLI, Strain/Indicator: IC5185, Metabolic Activation: NONE, Method: STANDARD PLATE); “inactive; negative” (Test System: E. COLI, Strain/Indicator: WP2 (PKM101), Metabolic Activation: NONE, Method: STANDARD PLATE). Under “Test System: E. COLI, Strain/Indicator: WP2 UVRA (PKM101), Metabolic Activation: NONE, Method: STANDARD PLATE”, the mutagenic call was “inactive; negative”.
On to `O=C1C=CC(=O)C1(Cl)Cl`, for which the mutagenic call under setting [1] is “active; positive”.
